Data taken from patent US12052991B2, “Substituted pyridinyloxybenzenes and salts thereof and use thereof as herbicidal agents” (Bayer Aktiengesellschaft, priority 2018, dated 2024).

How the values were obtained:
Assay type in all cases: in vivo
Poa annua (POAAN) [1] = test: Herbicidal post-emergence action (Table B3); settings: rated visually after about 3 weeks, 100% = plants have died, 0% = like control plants
Description: (§1) Seeds of mono- and dicotyledonous weed plants were placed in plastic pots in sandy loam soil (doubly sown with in each case one species of mono- or dicotyledonous weed plants per pot), covered with soil and cultivated in a greenhouse under controlled growth conditions. 2 to 3 weeks after sowing, the test plants were treated at the one-leaf stage. The compounds of the invention, formulated in the form of wettable powders (WP) or as emulsion concentrates (EC), were applied onto the green parts of the plants as aqueous suspension or emulsion with addition of 0.5% additive at a water application rate of 600 liters per hectare (converted). After the test plants had been kept in the greenhouse under optimum growth conditions for about 3 weeks, the activity of the preparations was rated visually in comparison to untreated controls. For example, 100% activity=the plants have died, 0% activity=like control plants. Tables B1 to B12 below show the effects of selected compounds of the general formula (I) according to Table 1 on various harmful plants and an application rate corresponding to 1280 or 320 g/ha, which were obtained by the experimental procedure mentioned above.

[2] = tested on: Alopecurus myosuroides (ALOMY); test: Herbicidal post-emergence action (Table B9); settings: 1280 g/ha; rated visually after about 3 weeks; 100% = plants have died, 0% = like control plants
Description: as §1

[3] = tested on: Digitaria sanguinalis (DIGSA); test: Herbicidal pre-emergence action, test C (Table C10); settings: dosage 1280 g/ha; visual scoring after about 3 weeks; 100% = plants have died, 0% = like control plants
Excerpt: (§2) Seeds of mono- and dicotyledonous weed plants were placed in plastic pots in sandy loam soil (doubly sown with one species each of mono- or dicotyledonous weed plants per pot) and covered with soil. The compounds of the invention, formulated in the form of wettable powders (WP) or as emulsion concentrates (EC), were then applied onto the surface of the covering soil as aqueous suspension or emulsion with addition of 0.5% additive at a water application rate of 600 liters per hectare (converted). After the treatment, the pots were placed in a greenhouse and kept under good growth conditions for the test plants. After about 3 weeks, the effect of the preparations was scored visually in comparison with untreated controls as percentages. For example, 100% activity=the plants have died, 0% activity=like control plants. Tables C1 to C12 below show the effects of selected compounds of the general formula (I) according to Table 1 on various harmful plants and an application rate corresponding to 1280 or 320 g/ha, which were obtained by the experimental procedure mentioned above.

Veronica persica (VERPE) [4] = test: Herbicidal pre-emergence action, test C (Table C12); settings: dosage 1280 g/ha, visual scoring vs untreated controls
Excerpt: as §2

[5] = tested on: Amaranthus retroflexus (AMARE); test: Herbicidal pre-emergence action, test C (Table C6); settings: visual scoring after about 3 weeks, 100% = plants have died, 0% = like control plants
Excerpt: as §2

Veronica persica (VERPE) [6] = test: Herbicidal post-emergence action (Table B12); settings: visual rating about 3 weeks after treatment, 100% = plants have died, 0% = like control plants
Description: as §1

Setaria viridis (SETVI) = test: Herbicidal pre-emergence action, test C (Table C4); settings: dosage 1280 g/ha; visual scoring after about 3 weeks; 100% = plants have died, 0% = like control plants
Excerpt: as §2

Stellaria media (STEME) [7] = test: Herbicidal pre-emergence action, test C (Table C8); settings: visual scoring after about 3 weeks, 100% = plants have died, 0% = like control plants
Excerpt: as §2

Stellaria media (STEME) [8] = test: Herbicidal post-emergence action (Table B8); settings: visual rating about 3 weeks after treatment, 100% = plants have died, 0% = like control plants
Description: as §1

Bassia scoparia (KCHSC) = test: Herbicidal post-emergence action (Table B11); settings: dosage 1280 g/ha; visual rating about 3 weeks after treatment; 100% = plants have died, 0% = like control plants
Description: as §1

[9] = tested on: Amaranthus retroflexus (AMARE); test: Herbicidal post-emergence action (Table B6); settings: visual rating about 3 weeks after treatment, 100% = plants have died, 0% = like control plants
Description: as §1

[10] = tested on: harmful plants ABUTH, AMARE, ECHCG, LOLRI, MATIN, POAAN, SETVI, STEME, ALOMY, DIGSA, KCHSC and VERPE; test: Herbicidal post-emergence action, summary of Tables B1-B12; settings: application rate of 1280 or 320 g of active ingredient per hectare; summary in words
Description: as §1, with “controls.” for “controls. For example, 100% activity=the plants have died, 0% activity=like control plants. Tables B1 to B12 below show the effects of selected compounds of the general formula (I) according to Table 1 on various harmful plants and an application rate corresponding to 1280 or 320 g/ha, which were obtained by the experimental procedure mentioned above.”
(§3) For example, 100% activity=the plants have died, 0% activity=like control plants.
Tables B1 to B12 below show the effects of selected compounds of the general formula (I) according to Table 1 on various harmful plants and an application rate corresponding to 1280 or 320 g/ha, which were obtained by the experimental procedure mentioned above.
As the results of Tables B1-B12 show, compounds no.

[11] = tested on: Abutilon theophrasti (ABUTH); test: Herbicidal post-emergence action (Table B5); settings: rated visually after about 3 weeks, 100% = plants have died, 0% = like control plants
Description: as §1

[12] = tested on: Digitaria sanguinalis (DIGSA); test: Herbicidal post-emergence action (Table B10); settings: dosage 1280 g/ha; visual rating about 3 weeks after treatment; 100% = plants have died, 0% = like control plants
Description: as §1

Poa annua (POAAN) [13] = test: Herbicidal pre-emergence action, test C (Table C3); settings: visual scoring after about 3 weeks, 100% = plants have died, 0% = like control plants
Excerpt: as §2

[14] = tested on: harmful plants ABUTH, AMARE, ECHCG, LOLRI, MATIN, POAAN, SETVI, STEME, ALOMY, DIGSA, KCHSC and VERPE; test: Herbicidal pre-emergence action (test C), summary of Tables C1-C12; settings: application rate of 1280 or 320 g of active ingredient per hectare; summary in words
Excerpt: as §2, with “percentages.” for “percentages. For example, 100% activity=the plants have died, 0% activity=like control plants. Tables C1 to C12 below show the effects of selected compounds of the general formula (I) according to Table 1 on various harmful plants and an application rate corresponding to 1280 or 320 g/ha, which were obtained by the experimental procedure mentioned above.”
as §3
Tables C1 to C12 below show the effects of selected compounds of the general formula (I) according to Table 1 on various harmful plants and an application rate corresponding to 1280 or 320 g/ha, which were obtained by the experimental procedure mentioned above.
As the results of Tables C1-C12 show, compounds no.

[15] = tested on: Echinochloa crus-galli (ECHCG); test: Herbicidal post-emergence action (Table B1); settings: 1280 g/ha; rated visually after about 3 weeks; 100% = plants have died, 0% = like control plants
Description: as §1

[16] = tested on: Matricaria inodora (MATIN); test: Herbicidal pre-emergence action, test C (Table C7); settings: dosage 1280 g/ha; visual scoring after about 3 weeks; 100% = plants have died, 0% = like control plants
Excerpt: as §2

SMILES	Post-emergence action against Poa annua (POAAN) (Poa annua (POAAN) [1]; 320 g/ha)	Post-emergence action against Poa annua (POAAN) (Poa annua (POAAN) [1]; 1280 g/ha)	Pre-emergence action against Digitaria sanguinalis (DIGSA) [3]	Pre-emergence action against Veronica persica (VERPE) (Veronica persica (VERPE) [4])	Pre-emergence action against Amaranthus retroflexus (AMARE) ([5]; dosage 1280 g/ha)	Post-emergence action against Veronica persica (VERPE) (Veronica persica (VERPE) [6]; dosage 320 g/ha)	Post-emergence action against Veronica persica (VERPE) (Veronica persica (VERPE) [6]; dosage 1280 g/ha)	Pre-emergence action against Setaria viridis (SETVI) (Setaria viridis (SETVI))	Pre-emergence action against Stellaria media (STEME) (Stellaria media (STEME) [7]; dosage 320 g/ha)	Pre-emergence action against Stellaria media (STEME) (Stellaria media (STEME) [7]; dosage 1280 g/ha)	Post-emergence action against Stellaria media (STEME) (Stellaria media (STEME) [8]; dosage 320 g/ha)	Post-emergence action against Stellaria media (STEME) (Stellaria media (STEME) [8]; dosage 1280 g/ha)	Post-emergence action against Bassia scoparia (KCHSC) (Bassia scoparia (KCHSC))	Post-emergence action against Amaranthus retroflexus (AMARE) ([9]; dosage 1280 g/ha)	herbicidal activity against the harmful plants of Tables B1-B12 in post-emergence treatment [10]	Post-emergence action against Abutilon theophrasti (ABUTH) ([11]; 1280 g/ha)	Pre-emergence action against Poa annua (POAAN) (Poa annua (POAAN) [13]; dosage 1280 g/ha)	herbicidal activity against the harmful plants of Tables C1-C12 in pre-emergence treatment [14]	further results
FC(F)(F)c1ccc(-c2ccccc2Oc2ccc(Cl)cn2)nc1 [Example 1-67]	100%	100%	100%	100%	100%	100%	100%	100%	100%	100%	100%	100%	90%	100%	very good herbicidal activity	100%	100%	very good herbicidal activity	Post-emergence action against Alopecurus myosuroides (ALOMY) [2]: 90%; Post-emergence action against Abutilon theophrasti (ABUTH) ([11]; 320 g/ha): 90%; Post-emergence action against Digitaria sanguinalis (DIGSA) [12]: 90%
Cc1ccc(-c2cc(C(F)F)no2)c(Oc2ncc(Cl)cc2F)c1 [Example 1-27]	–	–	–	100%	90%	100%	100%	–	–	90%	100%	100%	90%	–	very good herbicidal activity	90%	–	very good herbicidal activity	–
COc1ccc(-c2cc(C(F)F)no2)c(Oc2ccc(Cl)cn2)c1 [Example 1-39]	100%	100%	90%	100%	100%	100%	100%	90%	100%	100%	100%	100%	–	100%	very good herbicidal activity	90%	100%	very good herbicidal activity	Post-emergence action against Echinochloa crus-galli (ECHCG) [15]: 90%; Pre-emergence action against Amaranthus retroflexus (AMARE) ([5]; dosage 320 g/ha): 100%; Pre-emergence action against Matricaria inodora (MATIN) [16]: 90%; Post-emergence action against Amaranthus retroflexus (AMARE) ([9]; dosage 320 g/ha): 100%; Pre-emergence action against Poa annua (POAAN) (Poa annua (POAAN) [13]; dosage 320 g/ha): 100%
